The text below walks through data of patent publication US5380759A, “Methyl N-[6-(3,4,5-trimethoxybenzloxy)imidazo[1,2-b]pyridazin-2-zyl]carbamate used to treat leukemia” (priority 1987, dated 1995).

One assay concerns P388/5FU. The experiment in a line: In vivo activity against drug resistant tumour P388/5FU. Also on record: species or system mouse. As to conditions: optimum dose 20.0 mg/kg. As for the experimental part: (§1) CD2-F1 mice, of the same sex, weighing within a 3 gram range surrounding 20 g, are used for this test. Control and test animals are injected intraperitoneally with a suspension of 10^6 viable P388/O tumour cells on day 0. In each test several dose levels which bracket the LD20 for the compound are evaluated; each dose level group contains 6 animals. The test compounds are prepared either in physiologic saline containing 0.05% Tween 80 or distilled water containing 5% dextrose and are administered intraperitoneally on days 1,5 and 9 relative to tumour implant. Doses are on a mg/kg basis according to individual animals' body weights. The day of death for each animal is recorded and the median day of death identified for each group. The difference between the median survival time for treated and control groups is expressed as a percentage increase in life span (% ILS).
(§2) E. Activity Against Drug-Resistant Tumours
(§3) Using a similar procedure to the Lymphocytic Leukaemia P388/O test, the compound of Example 1 was evaluated against P388/O tumours which had been made resistant to the following standard, clinically used anti-tumour agents: […]

Another assay has as its system P388/CPA. The experiment in a line: In vivo activity against drug resistant tumour P388/CPA. More on the design: species or system mouse. As to conditions: optimum dose 265.0 mg/kg.
Another assay deals with P388/VCR. The experiment in a line: In vivo activity against drug resistant tumour P388/VCR. The settings on record: optimum dose 1.5 mg/kg. Also on record: species or system mouse. As for the experimental part: as §1, §2, §3
The next assay relates to microtubule function. As to conditions: cited from earlier work.

Each structure is given as a SMILES string.

For the compound `O=c1[nH]cc(F)c(=O)[nH]1` [Example 5FU, 5-fluorouracil, reference compound], in the assay on P388/5FU, the “60 Day Survivors” value was 0/6 and the “% ILS” value is listed as “+71%”.
As to `O=P1(N(CCCl)CCCl)NCCCO1` (stereo not shown) [CPA, cylophosphamide, reference compound], in the assay with P388/CPA, the “60 Day Survivors” value was 0/6 and the “% ILS” value is on record as “+55%”.
Consider `CC[C@]1(O)C[C@H]2CN(CCc3c([nH]c4ccccc34)[C@@](C(=O)OC)(c3cc4c(cc3OC)N(C=O)[C@H]3[C@@](O)(C(=O)OC)[C@H](OC(C)=O)[C@]5(CC)C=CCN6CC[C@]43[C@@H]65)C2)C1` [VCR, Vincristine, reference compound], for which, in the assay on P388/VCR, the “60 Day Survivors” value is given as 0/6 and the “% ILS” value is reported as “+36%”. Besides, in the assay with microtubule function, the microtubule inhibitory activity result was “inhibitor of microtubule function”.
